Reference: patent US10022374B2, “Certain protein kinase inhibitors” (Shanghai Fochon Pharmaceutical Co., Ltd., priority 2013, dated 2018)

Tests used:
A-375 cells = assay: Inhibition of cell proliferation (MTS), A-375 cells; assay type: cell-based; conditions: Homo sapiens, A-375, 72 h, A-375 cells, 3000 cells/well, 72 h, MTS, absorbance 490 nm; read-out: A375 IC50
Description: (§1) MTS testing kit was purchased from Promega. The DMEM, RPMI-1640 and Fetal bovine serum were purchased from Gibco. Dimethyl sulfoxide (DMSO) was purchased from Sigma.
(§2) To investigate whether a compound is able to inhibit the activity of MEK in cells, a mechanism-based assay using A-375 and HT-29 cell was developed. In this assay, inhibition of MEK was detected by the inhibition of A-375 and HT-29 cells proliferation. A-375 and HT-29 cells were cultured in culture flasks to 40-80% confluence respectively in DMEM and RPMI-1640 plus 10% fetal bovine serum. Cells were collected and plated onto 96-well plates at desired cell density (A-375: 3000 cells/well; HT-29: 5000 cells/well). Plates were incubated overnight at 37° C., with 5% CO2 to adhere. Compounds were added to the plates. The final compound concentrations were […], 12.35, 4.12, 1.37, 0.46 and 0.15 nM, respectively. Place plates at 37° C., with 5% CO2 for 72 h. 10 μl MTS were added to each well and incubate the plates for exactly 2 hours. Absorbance was measured at 490 nm. […] was calculated using GraphPad Prism 5.0.

HT-29 cells = assay: Inhibition of cell proliferation (MTS), HT-29 cells; assay type: cell-based; conditions: Homo sapiens, HT-29, 72 h, HT-29 cells, 5000 cells/well, 72 h, MTS, absorbance 490 nm; read-out: HT29 IC50
Description: as §1, §2

Compound | IC50 (A-375 cells) | IC50 (HT-29 cells)
CC(=O)Nc1cccc(-c2nn(C(C)C)c(=O)c3c(Nc4ccc(I)cc4F)c(F)c(=O)n(C)c23)c1 [Example 9, N-(3-(3-fluoro-4-(2-fluoro-4-iodophenylamino)-6-isopropyl-1-methyl-2,5-dioxo-1,2,5,6-tetrahydropyrido[2,3-d]pyridazin-8-yl)phenyl)acetamide] | 44 nM | 47.3 nM
CCS(=O)(=O)Nc1cccc(-c2nn(C3CC3)c(=O)c3c(Nc4ccc(I)cc4F)c(F)c(=O)n(C)c23)c1 [Example 6, N-(3-(6-cyclopropyl-3-fluoro-4-(2-fluoro-4-iodophenylamino)-1-methyl-2,5-dioxo-1,2,5,6-tetrahydropyrido[2,3-d]pyridazin-8-yl)phenyl)ethanesulfonamide] | 4.8 nM | 6.4 nM
CN(c1cccc(-c2nn(C)c(=O)c3c(Nc4ccc(I)cc4F)c(F)c(=O)n(C)c23)c1)S(=O)(=O)C1CC1 [Example 52, N-(3-(3-fluoro-4-((2-fluoro-4-iodophenyl)amino)-1,6-dimethyl-2,5-dioxo-1,2,5,6-tetrahydropyrido[2,3-d]pyridazin-8-yl)phenyl)-N-methylcyclopropanesulfonamide] | 5.7 nM | 7.8 nM
CC(C)S(=O)(=O)Nc1cccc(-c2nn(CC(O)CO)c(=O)c3c(Nc4ccc(I)cc4F)c(F)c(=O)n(C)c23)c1 (centres unmarked) [Example 45, N-(3-(6-(2,3-dihydroxypropyl)-3-fluoro-4-(2-fluoro-4-iodophenylamino)-1-methyl-2,5-dioxo-1,2,5,6-tetrahydropyrido[2,3-d]pyridazin-8-yl)phenyl)propane-2-sulfonamide] | 9.8 nM | 23.5 nM
CCC(=O)Nc1cccc(-c2nn(CC(O)CO)c(=O)c3c(Nc4ccc(I)cc4F)c(F)c(=O)n(C)c23)c1 (centres unmarked) [Example 41, N-(3-(6-(2,3-dihydroxypropyl)-3-fluoro-4-(2-fluoro-4-iodophenylamino)-1-methyl-2,5-dioxo-1,2,5,6-tetrahydropyrido[2,3-d]pyridazin-8-yl)phenyl)propionamide] | 399 nM | 315 nM
CN(c1cccc(-c2nn(C)c(=O)c3c(Nc4ccc(I)cc4F)c(F)c(=O)n(C)c23)c1)S(C)(=O)=O [Example 50, N-(3-(3-fluoro-4-((2-fluoro-4-iodophenyl)amino)-1,6-dimethyl-2,5-dioxo-1,2,5,6-tetrahydropyrido[2,3-d]pyridazin-8-yl)phenyl)-N-methylmethanesulfonamide] | 1.5 nM | 5.3 nM
CC(C)S(=O)(=O)Nc1cccc(-c2nn(C3CC3)c(=O)c3c(Nc4ccc(I)cc4F)c(F)c(=O)n(C)c23)c1 [Example 7, N-(3-(6-cyclopropyl-3-fluoro-4-(2-fluoro-4-iodophenylamino)-1-methyl-2,5-dioxo-1,2,5,6-tetrahydropyrido[2,3-d]pyridazin-8-yl)phenyl)propane-2-sulfonamide] | 3.5 nM | 4.1 nM
C=CCn1nc(-c2cccc(NS(=O)(=O)CC)c2)c2c(c(Nc3ccc(I)cc3F)c(F)c(=O)n2C)c1=O [Example 32, N-(3-(6-allyl-3-fluoro-4-(2-fluoro-4-iodophenylamino)-1-methyl-2,5-dioxo-1,2,5,6-tetrahydropyrido[2,3-d]pyridazin-8-yl)phenyl)ethanesulfonamide] | 36.2 nM | 12.7 nM
Cn1c(=O)c(F)c(Nc2ccc(I)cc2F)c2c(=O)n(C3CC3)nc(-c3cccc(NS(C)(=O)=O)c3)c21 [Example 5, N-(3-(6-cyclopropyl-3-fluoro-4-(2-fluoro-4-iodophenylamino)-1-methyl-2,5-dioxo-1,2,5,6-tetrahydropyrido[2,3-d]pyridazin-8-yl)phenyl)methanesulfonamide] | 4 nM | 5.1 nM
Cn1c(=O)c(F)c(Nc2ccc(I)cc2F)c2c(=O)n(CC(O)CO)nc(-c3cccc(NS(=O)(=O)C4CC4)c3)c21 (centres unmarked) [Example 46, N-(3-(6-(2,3-dihydroxypropyl)-3-fluoro-4-(2-fluoro-4-iodophenylamino)-1-methyl-2,5-dioxo-1,2,5,6-tetrahydropyrido[2,3-d]pyridazin-8-yl)phenyl)cyclopropanesulfonamide] | 68.9 nM | 24.2 nM
C=CCn1nc(-c2cccc(NC(=O)CC)c2)c2c(c(Nc3ccc(I)cc3F)c(F)c(=O)n2C)c1=O [Example 29, N-(3-(6-allyl-3-fluoro-4-(2-fluoro-4-iodophenylamino)-1-methyl-2,5-dioxo-1,2,5,6-tetrahydropyrido[2,3-d]pyridazin-8-yl)phenyl)propionamide] | 51.2 nM | 106 nM
Cn1c(=O)c(F)c(Nc2ccc(I)cc2F)c2c(=O)n(C3CC3)nc(-c3cccc(NC(=O)C4CC4)c3)c21 [Example 4, N-(3-(6-cyclopropyl-3-fluoro-4-(2-fluoro-4-iodophenylamino)-1-methyl-2,5-dioxo-1,2,5,6-tetrahydropyrido[2,3-d]pyridazin-8-yl)phenyl)cyclopropanecarboxamide] | 26.6 nM | 41.9 nM
CC(C)n1nc(-c2cccc(NC(=O)C3CC3)c2)c2c(c(Nc3ccc(I)cc3F)c(F)c(=O)n2C)c1=O [Example 12, N-(3-(3-fluoro-4-(2-fluoro-4-iodophenylamino)-6-isopropyl-1-methyl-2,5-dioxo-1,2,5,6-tetrahydropyrido[2,3-d]pyridazin-8-yl)phenyl)cyclopropanecarboxamide] | 199 nM | 192 nM
CC(C)n1nc(-c2cccc(NS(=O)(=O)C3CC3)c2)c2c(c(Nc3ccc(I)cc3F)c(F)c(=O)n2C)c1=O [Example 16, N-(3-(3-fluoro-4-(2-fluoro-4-iodophenylamino)-6-isopropyl-1-methyl-2,5-dioxo-1,2,5,6-tetrahydropyrido[2,3-d]pyridazin-8-yl)phenyl)cyclopropanesulfonamide] | 19.4 nM | 31.5 nM
Cn1c(=O)c(F)c(Nc2ccc(I)cc2F)c2c(=O)n(CC(O)CO)nc(-c3cccc(NS(C)(=O)=O)c3)c21 (centres unmarked) [Example 43, N-(3-(6-(2,3-dihydroxypropyl)-3-fluoro-4-(2-fluoro-4-iodophenylamino)-1-methyl-2,5-dioxo-1,2,5,6-tetrahydropyrido[2,3-d]pyridazin-8-yl)phenyl)methanesulfonamide] | 3.6 nM | 4.6 nM
COCCn1nc(-c2cccc(NS(=O)(=O)C3CC3)c2)c2c(c(Nc3ccc(I)cc3F)c(F)c(=O)n2C)c1=O [Example 18, N-(3-(3-fluoro-4-(2-fluoro-4-iodophenylamino)-6-(2-methoxyethyl)-1-methyl-2,5-dioxo-1,2,5,6-tetrahydropyrido[2,3-d]pyridazin-8-yl)phenyl)cyclopropanesulfonamide] | 30.2 nM | 23.6 nM
C=CCn1nc(-c2cccc(NC(C)=O)c2)c2c(c(Nc3ccc(I)cc3F)c(F)c(=O)n2C)c1=O [Example 28, N-(3-(6-allyl-3-fluoro-4-(2-fluoro-4-iodophenylamino)-1-methyl-2,5-dioxo-1,2,5,6-tetrahydropyrido[2,3-d]pyridazin-8-yl)phenyl)acetamide] | 1.6 nM | 6.4 nM
Cn1c(=O)c(F)c(Nc2ccc(I)cc2F)c2c(=O)n(CCF)nc(-c3cccc(NS(=O)(=O)C4CC4)c3)c21 [Example 19, N-(3-(3-fluoro-4-(2-fluoro-4-iodophenylamino)-6-(2-fluoroethyl)-1-methyl-2,5-dioxo-1,2,5,6-tetrahydropyrido[2,3-d]pyridazin-8-yl)phenyl)cyclopropanesulfonamide] | 2.4 nM | 4.2 nM
CCn1nc(-c2cccc(NS(C)(=O)=O)c2)c2c(c(Nc3ccc(I)cc3F)c(F)c(=O)n2C)c1=O [Example 25, N-(3-(6-ethyl-3-fluoro-4-(2-fluoro-4-iodophenylamino)-1-methyl-2,5-dioxo-1,2,5,6-tetrahydropyrido[2,3-d]pyridazin-8-yl)phenyl)methanesulfonamide] | < 1 nM | < 1 nM
C=CCn1nc(-c2cccc(NS(=O)(=O)C(C)C)c2)c2c(c(Nc3ccc(I)cc3F)c(F)c(=O)n2C)c1=O [Example 33, N-(3-(6-allyl-3-fluoro-4-(2-fluoro-4-iodophenylamino)-1-methyl-2,5-dioxo-1,2,5,6-tetrahydropyrido[2,3-d]pyridazin-8-yl)phenyl)propane-2-sulfonamide] | 12.6 nM | 7.2 nM
CCCn1nc(-c2cccc(NS(=O)(=O)C3CC3)c2)c2c(c(Nc3ccc(I)cc3F)c(F)c(=O)n2C)c1=O [Example 17, N-(3-(3-fluoro-4-(2-fluoro-4-iodophenylamino)-1-methyl-2,5-dioxo-6-propyl-1,2,5,6-tetrahydropyrido[2,3-d]pyridazin-8-yl)phenyl)cyclopropanesulfonamide] | 12.8 nM | 21.6 nM
Cn1nc(-c2cccc(N3CCCS3(=O)=O)c2)c2c(c(Nc3ccc(I)cc3F)c(F)c(=O)n2C)c1=O [Example 56, 8-(3-(1,1-dioxidoisothiazolidin-2-yl)phenyl)-3-fluoro-4-((2-fluoro-4-iodophenyl)amino)-1,6-dimethylpyrido[2,3-d]pyridazine-2,5(1H,6H)-dione] | 9.3 nM | 14.1 nM
